The results in this text go back to ChEMBL document CHEMBL5143582, “Genome-Guided Discovery of Antifungal Filipins from a Deep-Sea-Derived Streptomyces antibioticus” (2022).

In brackets after ≈: the same amount, converted by molar mass.

The test concerns Candida albicans. Put plainly: Antifungal activity Candida albicans CMCC(F) 98001 assessed as inhibition of fungal growth incubated for 24 hrs by broth micro dilution method. Format: functional.
As a reminder, the MIC is the lowest concentration found to suppress growth. As to `C\C1=C/C=C/C=C/C=C/C=C/C[C@@H](C)OC(=O)C[C@@H](O)C[C@@H](O)C[C@@H](O)C[C@@H](O)C[C@@H](O)C[C@@H]1O`, the MIC was > 12.5 µg/mL.
Next, `C\C1=C/C=C/C=C/C=C/C=C/[C@H](O)[C@@H](C)OC(=O)[C@H](CCCC(C)C)[C@@H](O)C[C@@H](O)C[C@@H](O)C[C@@H](O)C[C@@H](O)C[C@@H](O)C[C@@H]1O`: 1.56 µg/mL (≈ 2.44 µM); `CCCCCC[C@@H]1CC[C@@H](O)C[C@@H](O)C[C@@H](O)C[C@@H](O)C[C@@H](O)C[C@@H](O)C[C@H](O)/C(C)=C/C=C/C=C/C=C/C=C/[C@H](O)[C@@H](C)OC1=O`: > 12.5 µg/mL; `CCCC[C@H]1C(=O)O[C@H](C)[C@@H](O)/C=C/C=C/C=C/C=C/C=C(\C)[C@@H](O)C[C@H](O)C[C@H](O)C[C@H](O)C[C@H](O)C[C@H](O)C[C@@H]1O`: 6.25 µg/mL (≈ 10.2 µM).
Regarding `C\C1=C/C=C/C=C/C=C/C=C/C[C@@H](C)OC(=O)C[C@@H](O)C[C@@H](O)C[C@@H](O)C[C@@H](O)C[C@@H](O)C[C@@H](O)C[C@@H]1O`, the MIC was > 12.5 µg/mL.
Next, `CCCCC[C@H]1C(=O)O[C@H](C)[C@@H](O)/C=C/C=C/C=C/C=C/C=C(\C)[C@@H](O)C[C@H](O)C[C@H](O)C[C@H](O)C[C@H](O)C[C@H](O)C[C@@H]1O`: 3.13 µg/mL (≈ 5.01 µM); `C[C@@H]1C/C=C/C=C/C=C/C=C/C=C/[C@@H](O)C[C@H](O)C[C@H](O)C[C@H](O)C[C@H](O)C[C@H](O)C[C@H](O)CC(=O)O1`: > 12.5 µg/mL.
As to `C\C1=C/C=C/C=C/C=C/C=C/[C@H](O)[C@@H](C)OC(=O)[C@H](CCC(C)C)[C@@H](O)C[C@@H](O)C[C@@H](O)C[C@@H](O)C[C@@H](O)C[C@@H](O)C[C@@H]1O`, the MIC is 3.13 µg/mL (≈ 5.01 µM).
The result for `CCCCCC[C@H]1C(=O)O[C@H](C)[C@@H](O)/C=C/C=C/C=C/C=C/C=C(\C)[C@@H](O)C[C@H](O)C[C@H](O)C[C@H](O)C[C@H](O)C[C@H](O)C[C@@H]1O` reads 1.56 µg/mL (≈ 2.44 µM); that for `C\C1=C/C=C/C=C/C=C/C=C/[C@H](O)[C@@H](C)OC(=O)C[C@@H](O)C[C@@H](O)C[C@@H](O)C[C@@H](O)C[C@@H](O)C[C@@H](O)C[C@@H]1O`, > 12.5 µg/mL.
In the case of `CC(C)CC[C@H]1C(=O)O[C@H](C)[C@@H](O)/C=C/C=C/C=C/C=C/C=C/[C@@H](O)C[C@H](O)C[C@H](O)C[C@H](O)C[C@H](O)C[C@H](O)C[C@@H]1O`, the minimal inhibitory concentration (MIC) was > 12.5 µg/mL.
On to `C[C@@H]1[C@H](O)[C@@H](C)/C=C/C=C/C=C/C=C/C=C/C=C/C=C/[C@H](O[C@@H]2O[C@H](C)[C@@H](O)[C@H](N)[C@@H]2O)C[C@@H]2O[C@](O)(C[C@@H](O)C[C@@H](O)[C@H](O)CC[C@@H](O)C[C@@H](O)CC(=O)O[C@H]1C)C[C@H](O)[C@H]2C(=O)O` [AMPHOTERICIN B], for which the MIC is 0.2 µg/mL (≈ 0.216 µM).
On to `CCCCC[C@@H](O)[C@H]1C(=O)O[C@H](C)[C@@H](O)/C=C/C=C/C=C/C=C/C=C(\C)[C@@H](O)C[C@H](O)C[C@H](O)C[C@H](O)C[C@H](O)C[C@H](O)C[C@@H]1O` [FILIPIN], for which the minimum inhibitory concentration (MIC) was determined as 12.5 µg/mL (≈ 19.1 µM).
